Laboratory results as given in patent US9655981B2, “Mixed micelles” (Omeros Corporation, priority 2011, dated 2017).

Legend:
MDA-MB-435-MDR cells = test: Cytotoxicity, MTS assay; conditions: 4 hours treatment, viability after 24 hours, 16 μg/mL DOX
Experimental: The cell lines which were used were the MDA-MB-435 (Parent) and MDA-MB-435-MDR (MDR) cell lines.
Cytotoxicity was measured by treating MDA-MB-435 (Parent) and MDA-MB-435-MDR cells for 4 hours with free doxorubicin and encapsulated doxorubicin using various formulations of mixed micelles. After 4 hours the doxorubicin was rinsed from the cells. After 24 hours the cell viability was measured using an MTS assay. MDA-MB-435 cells were treated with 4 μg/mL DOX, and […] cells were treated with 16 μg/mL DOX.

[1] = Stability of ICG in micelles in vitro (decay of fluorescence emission in water); assay type: physicochemical; conditions: within forty-eight hours, deionized water, dark
Description: ICG has advantageous fluorescence properties for near-infrared imaging (NIR) in vivo but limitations include the molecule's photo, aqueous, and thermal instability as well as rapid binding to blood proteins and subsequent clearance by the liver. See, e.g., Cherrick, J. Clin. Invest. 39:592-600 (1959) and Kirchherr, et al., Mol. Pharmaceut. 6:480-491 (2009). Aqueous degradation of ICG occurs as a result of double bond saturation in the molecule's conjugated chain, and sequestering the molecule from the solvent radicals that activate this process reduces the rate of its degradation. See, e.g., Kirchherr et al., and Altinoglu and Adair, Wiley Interdisciplinary Reviews—Nanomedicine and Nanobiotechnology, 2:[…] (2010). To test the ability of the mixed micelle systems to stabilize ICG, the fluorescence of encapsulated dye was monitored over time at both room temperature and 37° C.
Stability of ICG in mixed micelles was evaluated by measuring decay of fluorescence emission in solution over a period of approximately ten days. […] At predetermined intervals, each mixture was sampled and the fluorescence intensity of the sample was evaluated with excitation at 775 nm and emission from 786 to 850 nm.

ICG fluorescence, % of original fluorescence value ([1]; 37° C.)	ICG fluorescence, % of original fluorescence value ([1]; room temperature)	SMILES	cytotoxicity (cell viability, in words) (MDA-MB-435-MDR cells)
		COc1cccc2c1C(=O)c1c(O)c3c(c(O)c1C2=O)C[C@@](O)(C(=O)CO)C[C@@H]3O[C@H]1C[C@H](N)[C@H](O)[C@H](C)O1 [Unencapsulated DOX, Doxorubicin]	limited effect
less than 10%	less than 10%	CC1(C)C(/C=C/C=C/C=C/C=C2\N(CCCCS(=O)(=O)O)c3ccc4ccccc4c3C2(C)C)=[N+](CCCCS(=O)(=O)[O-])c2ccc3ccccc3c21 [free ICG, indocyanine green]	
